Measured values published in patent US11154563B2, “Immunoproteasome inhibitors” (Principia Biopharma Inc., priority 2017, dated 2021).

Assays:
Format in all cases: biochemical
[1] = target: immunoproteasome LMP7/B5i subunit (Homo sapiens, UniProt P20618+P28062); experiment: Caliper-based proteasome enzymatic activity assay, LMP7; conditions: human recombinant immunoproteasome 0.3 nM, FAM-peptide substrate 1 μM, 3 h at rt
Method in brief: (§1)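 Recombinant human immunoproteasome or constitutive proteasome (0.3 nM) with 1 μM FAM-peptide in 20 mM Hepes pH 7.4, 0.015% SDS, 0.01% BSA; LMP7/β5c ran 3 h at rt and were stopped with 5 uM carfilzomib, LMP2 ran 2 h and was stopped with 6.7 uM ixazomib. Cleaved product quantified by microfluidic separation; IC50 from percent inhibition.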

[2] = target: constitutive proteasome β5c unit (Homo sapiens, UniProt P20618+P28074); experiment: Caliper-based proteasome enzymatic activity assay, β5c; conditions: human recombinant constitutive proteasome 0.3 nM, FAM-peptide substrate 1 μM, 3 h at rt; read-out: β5c subunit IC50
Method in brief: as §1

[3] = target: immunoproteasome LPM2/β1i subunit (Homo sapiens, UniProt P28065+P40306); experiment: Caliper-based proteasome enzymatic activity assay, LMP2; conditions: human recombinant immunoproteasome 0.3 nM, FAM-peptide substrate 1 μM, 2 h at rt
Procedure: A Caliper-based proteasome assay (Caliper Life Sciences, Hopkinton, Mass.) was used to measure inhibition of the immunoproteasome LMP7/B5i subunit, the immunoproteasome LPM2/β1i subunit, and the constitutive proteasome β5c unit for a compound of Formula (I). For LMP7 and β5c, serial dilutions of test compounds were incubated with either human recombinant immunoprotcasome or constitutive proteasome (0.3 nM enzyme) and a carboxyfluorescein (FAM)-labeled peptide substrate FAM-TYETFKSIMKKSPF-NH2 (1 μM) at it for 3 h. The reaction was then terminated with a buffer containing the known proteasome inhibitor carfilzomib at a concentration of 5 uM. For LMP2, serial dilutions of test compounds were incubated with human recombinant immunoproteasome proteasome (0.3 nM enzyme) and a carboxyfluorescein (FAM)-labeled peptide substrate FAM-[…]-NH2 (1 μM) at rt for 2 h. The reaction was then terminated with a buffer containing the known proteasome inhibitor ixazomib at a concentration of 6.7 uM. The reaction buffer was 20 mM Hepes pH 7.4, 0.01% bovine serum albumin, 0.015% SDS, 0.5 mM EDTA, 1%0/DMSO. The peptide cleavage reaction product was quantified on a Caliper LabChip 3000. Percent inhibition was calculated for each compound dilution and the concentration that produced 50% inhibition was calculated. This value is presented as the IC50.

| IC50 [1] | IC50 [2] | IC50 [3] | Structure (SMILES) |
| --- | --- | --- | --- |
| 2.8 nM | 372 nM | > 5000 nM | CC1(C=C(C#N)C(=O)N2CCCC[C@@H]2COC(=O)N[C@@H](Cc2coc3ccccc23)B(O)O)CCOCC1 [Example 59, ((R)-2-(benzofuran-3-yl)-1-(((((R)-1-(2-cyano-3-(4-methyltetrahydro-2H-pyran-4-yl)acryloyl)piperidin-2-yl)methoxy)carbonyl)amino)ethyl)boronic acid] |
| 1.4 nM | 1940 nM | 4780 nM | CC(C)(C=C(C#N)C(=O)N1CCC[C@@H]1COC(=O)N[C@@H](Cc1ccccc1)B(O)O)N1CCC(F)(F)CC1 [Example 21, ((R)-1-(((((R)-1-(2-cyano-4-(4,4-difluoropiperidin-1-yl)-4-methylpent-2-enoyl)pyrrolidin-2-yl)methoxy)carbonyl)amino)-2-phenylethyl)boronic acid] |
| 1.3 nM | 228 nM | > 5000 nM | CC(C)(C=C(C#N)C(=O)N1CCC[C@@H]1COC(=O)N[C@@H](Cc1coc2ccccc12)B(O)O)N1CCOCC1 [Example 40, ((R)-2-(benzofuran-3-yl)-1-(((((R)-(2-cyano-4-methyl-4-morpholinopent-2-enoyl)pyrrolidin-2-yl)methoxy)carbonyl)amino)ethyl)boronic acid] |
| 11 nM | 3480 nM | > 5000 nM | CC(C)(C=C(C#N)C(=O)N1CCCC[C@@H]1COC(=O)N[C@@H](Cc1ccccc1)B(O)O)N1CCCC1 [Example 27] |
| 1.5 nM | 2190 nM | > 5000 nM | CC(C)(C=C(C#N)C(=O)N1CCCC[C@@H]1COC(=O)N[C@@H](Cc1ccccc1)B(O)O)N1CCC(F)(F)C1 [Example 28, ((R)-1-(((((R)-1-(2-cyano-4-(3,3-difluoropyrrolidin-1-yl)-4-methylpent-2-enoyl)piperidin-2-yl)methoxy)carbonyl)amino)-2-phenylethyl)boronic acid] |
| 60 nM | 3260 nM | > 5000 nM | C=CC(=O)N1CCC[C@@H]1COC(=O)N[C@@H](Cc1ccc(C)cc1)B(O)O [Example 19, ((R)-1-(((((R)-1-acryloylpyrrolidin-2-yl)methoxy)carbonyl)amino)-2-(p-tolyl)ethyl)boronic acid] |
| 2.6 nM | > 5000 nM | > 5000 nM | CC(C)(C=C(C#N)C(=O)N1CCC[C@@H]1COC(=O)N[C@@H](Cc1ccccc1)B(O)O)N1CCOCC1 [Example 23, ((R)-1-(((((R)-1-(2-cyano-4-methyl-4-morpholinopent-2-enoyl)pyrrolidin-2-yl)methoxy)carbonyl)amino)-2-phenylethyl)boronic acid] |
| 4.4 nM | 1220 nM | > 5000 nM | CC(C)(C=C(C#N)C(=O)N1CCCC[C@@H]1COC(=O)N[C@@H](Cc1ccc(C(F)(F)F)cc1)B(O)O)N1CCC(F)(F)C1 [Example 83, ((R)-1-(((((R)-1-(2-cyano-4-(3,3-difluoropyrrolidin-1-yl)-4-methylpent-2-enoyl)piperidin-2-yl)methoxy)carbonyl)amino)-2-(4-(trifluoromethyl)phenyl)ethyl)boronic acid] |
| 2.5 nM | 444 nM | > 5000 nM | CC(C)C=C(C#N)C(=O)N1CCC[C@@H]1COC(=O)N[C@@H](Cc1coc2ccccc12)B(O)O [Example 16, ((R)-2-(benzofuran-3-yl)-1-(((((R)-1-(2-cyano-4-methylpent-2-enoyl)pyrrolidin-2-yl)methoxy)carbonyl)amino)ethyl)boronic acid] |
| 2.7 nM | 566 nM | > 5000 nM | Cc1ccc(C[C@H](NC(=O)OC[C@H]2COCCN2C(=O)C(C#N)=CC(C)(C)N2CCC(F)(F)C2)B(O)O)cc1 [Example 86, ((R)-1-(((((R)-4-(2-cyano-4-(3,3-difluorpyrrolidin-1-yl)-4-methylpent-2-enoyl)morpholin-3-yl)methoxy)carbonyl)amino)-2-(p-tolyl)ethyl)boronic acid] |
| 4 nM | 1960 nM | > 5000 nM | CC(C)(C)C=C(C#N)C(=O)N1C[C@H]2C[C@H]2[C@@H]1COC(=O)N[C@@H](Cc1ccccc1)B(O)O [Example 37, ((R)-1-(((((1R,2R,5S)-3-(2-cyano-4,4-dimethylpent-2-enoyl)-3-azabicyclo[3.1.0]hexan-2-yl)methoxy)carbonyl)amino)-2-phenylethyl)boronic acid] |
| 3.6 nM | 4540 nM | > 5000 nM | CC(C)(C=C(C#N)C(=O)N1CCC[C@@H]1COC(=O)N[C@@H](Cc1ccccc1)B(O)O)N1CCCCC1 [Example 20, ((R)-1-(((((R)-1-(2-cyano-4-methyl-4-(piperidin-1l-yl)pent-2-enoyl)pyrrolidin-2-yl)methoxy)carbonyl)amino)-2-phenylethyl)boronic acid] |
| 12 nM | 2390 nM | > 5000 nM | CC(C)(C=C(C#N)C(=O)N1CCCC[C@@H]1COC(=O)N[C@@H](Cc1ccccc1)B(O)O)N1CCC(F)(F)CC1 [Example 31, ((R)-1-(((((R)-1-(2-cyano-4-(4,4-difluoropiperidin-1-yl)-4-methylpent-2-enoyl)piperidin-2-yl)methoxy)carbonyl)amino)-2-phenylethyl)boronic acid] |
| 3.7 nM | 1390 nM | > 5000 nM | Cc1ccc(C[C@H](NC(=O)OC[C@H]2CCCCN2C(=O)C(C#N)=CC(C)(C)C)B(O)O)cc1 [Example 24, ((R)-1-(((((R)-1-(2-cyano-4,4-dimethylpent-2-enoyl)piperidin-2-yl)methoxy)carbonyl)amino)-2-(p-tolyl)ethyl)boronic acid] |
| 2 nM | 3020 nM | > 5000 nM | CC(C)(C=C(C#N)C(=O)N1CCC[C@@H]1COC(=O)N[C@@H](Cc1ccccc1)B(O)O)N1CCC(F)(F)C1 [Example 35, ((R)-1-(((((R)-1-(2-cyano-4-(3,3-difluoropyrrolidin-1-yl)-4-methylpent-2-enoyl)pyrrolidin-2-yl)methoxy)carbonyl)amino)-2-phenylethyl)boronic acid] |
| 1.2 nM | 2110 nM | > 5000 nM | CC(C)(C)C=C(C#N)C(=O)N1C[C@@H]2C[C@@H]2[C@@H]1COC(=O)N[C@@H](Cc1ccccc1)B(O)O [Example 26] |
| 14 nM | > 5000 nM | 3650 nM | CC(C)(C)/C=C(\C#N)C(=O)N1CCCC[C@H]1COC(=O)N[C@@H](Cc1ccccc1)B(O)O [Example 9, ((R)-1-(((((S)-1-((E)-2-cyano-4,4-dimethylpent-2-enoyl)piperidin-2-yl)methoxy)carbonyl)amino)-2-phenylethyl)boronic acid] |
| 1.2 nM | 187 nM | > 5000 nM | CC(C)(C)C=C(C#N)C(=O)N1CCC[C@@H]1COC(=O)N[C@@H](Cc1coc2ccccc12)B(O)O [Example 39, ((R)-2-(benzofuran-3-yl)-1-(((((R)-1-(2-cyano-4,4-dimethylpent-2-enoyl)pyrrolidin-2-yl)methoxy)carbonyl)amino)ethyl)boronic acid] |
| 6.9 nM | 397 nM | > 5000 nM | C=CC(=O)N1CCC[C@@H]1COC(=O)N[C@@H](Cc1coc2ccccc12)B(O)O [Example 36, ((R)-1-(((((R)-1-acryloylpyrrolidin-2-yl)methoxy)carbonyl)amino)-2-(benzofuran-3-yl)ethyl)boronic acid] |
| 0.7 nM | 1130 nM | 4490 nM | CC(C)(C)/C=C(\C#N)C(=O)N1C[C@@H](F)C[C@@H]1COC(=O)N[C@@H](Cc1ccccc1)B(O)O [Example 102, ((R)-1-(((((2R,4S)-1-((E)-2-cyano-4,4-dimethylpent-2-enoyl)-4-fluoropyrrolidin-2-yl)methoxy)carbonyl)amino)-2-phenylethyl)boronic acid] |
| 1 nM | 1960 nM | 4500 nM | CC(C)(C)/C=C(\C#N)C(=O)N1C[C@H](F)C[C@@H]1COC(=O)N[C@@H](Cc1ccccc1)B(O)O [Example 90, ((R)-1-(((((2R,4R)-1-((E)-2-cyano-4,4-dimethylpent-2-enoyl)-4-fluoropyrrolidin-2-yl)methoxy)carbonyl)amino)-2-phenylethyl)boronic acid] |
| 1.7 nM | > 5000 nM |  | CC(C)(C=C(C#N)C(=O)N1CCCC[C@@H]1COC(=O)N[C@@H](CCc1ccccc1)B(O)O)N1CCC(F)(F)C1 [Example 101, ((R)-1-(((((R)-1-(2-cyano-4-(3,3-difluoropyrrolidin-1-yl)-4-methylpent-2-enoyl)piperidin-2-yl)methoxy)carbonyl)amino)-3-phenylpropyl)boronic acid] |
| 1.1 nM | 1020 nM |  | Cc1ccc(C[C@H](NC(=O)OC[C@H]2[C@H]3C[C@H]3CN2C(=O)C(C#N)=CC(C)(C)N2CCOCC2)B(O)O)cc1 [Example 75] |
